Results: ChEMBL document CHEMBL3991601, “The target landscape of clinical kinase drugs” (Science, 2017)
The source made the active and inactive calls. Cut-off read from the data, not from the text of the source, for most assays here: actives have a measured Kd and inactives only a lower limit.

Tests used:
[1] = molecular target: Calcium/calmodulin-dependent protein kinase kinase 2 (Homo sapiens, UniProt Q96RR4)
[2] = molecular target: Mitogen-activated protein kinase kinase kinase 4 (Homo sapiens, UniProt Q9Y6R4)
[3] = molecular target: T1, Activin receptor type-1B (Homo sapiens, UniProt P36896)
T1 sequence (P36896 whole entry): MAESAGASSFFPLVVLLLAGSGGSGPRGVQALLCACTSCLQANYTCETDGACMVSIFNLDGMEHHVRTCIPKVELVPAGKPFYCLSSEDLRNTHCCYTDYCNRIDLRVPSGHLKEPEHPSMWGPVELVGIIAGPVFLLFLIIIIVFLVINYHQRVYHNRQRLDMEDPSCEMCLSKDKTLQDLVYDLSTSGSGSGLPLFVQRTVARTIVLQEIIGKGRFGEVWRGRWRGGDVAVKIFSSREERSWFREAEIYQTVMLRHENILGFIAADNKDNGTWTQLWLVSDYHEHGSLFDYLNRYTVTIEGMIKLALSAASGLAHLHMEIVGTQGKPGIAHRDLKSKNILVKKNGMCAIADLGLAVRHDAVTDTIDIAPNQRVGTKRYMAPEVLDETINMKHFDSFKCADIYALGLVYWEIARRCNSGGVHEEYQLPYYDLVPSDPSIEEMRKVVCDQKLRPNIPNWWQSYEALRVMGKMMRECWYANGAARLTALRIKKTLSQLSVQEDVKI

[4] = molecular target: T2, Bifunctional phosphoribosylaminoimidazole carboxylase/phosphoribosylaminoimidazole succinocarboxamide synthetase (Homo sapiens, UniProt P22234)
T2 sequence (P22234 whole entry): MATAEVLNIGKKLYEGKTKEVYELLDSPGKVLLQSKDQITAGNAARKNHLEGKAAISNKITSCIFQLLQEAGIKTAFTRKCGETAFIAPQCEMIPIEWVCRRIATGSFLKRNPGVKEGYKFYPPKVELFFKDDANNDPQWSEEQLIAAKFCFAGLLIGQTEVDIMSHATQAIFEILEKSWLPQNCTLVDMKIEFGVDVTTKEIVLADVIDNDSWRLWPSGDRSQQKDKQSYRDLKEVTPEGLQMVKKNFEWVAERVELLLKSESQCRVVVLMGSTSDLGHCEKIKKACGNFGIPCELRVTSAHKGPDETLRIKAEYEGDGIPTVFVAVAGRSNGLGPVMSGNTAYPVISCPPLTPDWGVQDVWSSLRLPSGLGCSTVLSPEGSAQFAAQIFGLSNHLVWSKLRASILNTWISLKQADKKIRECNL

[5] = molecular target: Ephrin type-A receptor 5 (Homo sapiens, UniProt P54756)
Ephrin type-A receptor 5, sequence (P54756 whole entry): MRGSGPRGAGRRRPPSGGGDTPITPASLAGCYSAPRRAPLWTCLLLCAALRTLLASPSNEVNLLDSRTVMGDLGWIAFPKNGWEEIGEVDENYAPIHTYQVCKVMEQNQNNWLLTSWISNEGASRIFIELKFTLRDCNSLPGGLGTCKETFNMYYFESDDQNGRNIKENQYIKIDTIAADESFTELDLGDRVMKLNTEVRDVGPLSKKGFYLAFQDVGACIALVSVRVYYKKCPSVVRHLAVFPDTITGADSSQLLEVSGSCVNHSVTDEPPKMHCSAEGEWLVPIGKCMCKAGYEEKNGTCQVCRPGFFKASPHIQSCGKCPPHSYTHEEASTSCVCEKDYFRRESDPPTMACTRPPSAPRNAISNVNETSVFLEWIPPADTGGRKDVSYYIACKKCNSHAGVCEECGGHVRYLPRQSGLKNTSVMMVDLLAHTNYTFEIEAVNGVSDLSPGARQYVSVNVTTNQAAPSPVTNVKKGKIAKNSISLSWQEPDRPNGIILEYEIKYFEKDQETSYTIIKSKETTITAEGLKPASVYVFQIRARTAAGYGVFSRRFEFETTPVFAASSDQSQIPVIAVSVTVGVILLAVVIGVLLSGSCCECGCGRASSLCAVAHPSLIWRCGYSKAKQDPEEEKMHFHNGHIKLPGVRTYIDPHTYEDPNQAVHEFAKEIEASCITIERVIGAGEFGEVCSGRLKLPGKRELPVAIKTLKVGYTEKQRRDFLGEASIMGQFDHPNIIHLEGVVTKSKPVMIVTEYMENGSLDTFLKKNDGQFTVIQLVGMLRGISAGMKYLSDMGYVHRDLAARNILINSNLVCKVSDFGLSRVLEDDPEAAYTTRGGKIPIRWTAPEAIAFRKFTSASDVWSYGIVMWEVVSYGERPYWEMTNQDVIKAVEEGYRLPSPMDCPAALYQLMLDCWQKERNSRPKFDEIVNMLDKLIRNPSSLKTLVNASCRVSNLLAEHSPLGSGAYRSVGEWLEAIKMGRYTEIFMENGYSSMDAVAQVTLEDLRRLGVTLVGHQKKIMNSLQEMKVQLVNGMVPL

[6] = molecular target: Mitogen-activated protein kinase kinase kinase 1 (Homo sapiens, UniProt Q13233)
[7] = molecular target: Ribosomal protein S6 kinase alpha-4 (Homo sapiens, UniProt O75676)
Ribosomal protein S6 kinase alpha-4, sequence (O75676 whole entry): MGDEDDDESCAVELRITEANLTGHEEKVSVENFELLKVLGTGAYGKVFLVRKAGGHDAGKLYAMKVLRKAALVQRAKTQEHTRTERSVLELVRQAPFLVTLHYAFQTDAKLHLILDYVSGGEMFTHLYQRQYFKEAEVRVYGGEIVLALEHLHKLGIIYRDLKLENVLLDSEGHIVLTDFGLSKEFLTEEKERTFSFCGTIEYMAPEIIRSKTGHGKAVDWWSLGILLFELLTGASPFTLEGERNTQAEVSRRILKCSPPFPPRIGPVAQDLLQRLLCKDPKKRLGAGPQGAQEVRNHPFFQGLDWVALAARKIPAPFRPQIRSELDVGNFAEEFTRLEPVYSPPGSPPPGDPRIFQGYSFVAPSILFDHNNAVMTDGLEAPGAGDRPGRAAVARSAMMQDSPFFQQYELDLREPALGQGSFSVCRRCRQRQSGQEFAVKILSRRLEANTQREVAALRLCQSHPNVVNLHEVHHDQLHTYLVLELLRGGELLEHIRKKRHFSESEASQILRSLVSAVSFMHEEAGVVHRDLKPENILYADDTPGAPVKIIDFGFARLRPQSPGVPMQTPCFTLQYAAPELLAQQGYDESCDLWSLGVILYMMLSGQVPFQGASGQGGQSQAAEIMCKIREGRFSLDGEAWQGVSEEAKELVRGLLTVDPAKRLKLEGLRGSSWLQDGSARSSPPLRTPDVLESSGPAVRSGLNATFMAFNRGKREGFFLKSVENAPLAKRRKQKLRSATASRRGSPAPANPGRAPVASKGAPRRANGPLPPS

[8] = molecular target: Myosin-14 (Homo sapiens, UniProt Q7Z406)
Myosin-14, sequence (Q7Z406 whole entry): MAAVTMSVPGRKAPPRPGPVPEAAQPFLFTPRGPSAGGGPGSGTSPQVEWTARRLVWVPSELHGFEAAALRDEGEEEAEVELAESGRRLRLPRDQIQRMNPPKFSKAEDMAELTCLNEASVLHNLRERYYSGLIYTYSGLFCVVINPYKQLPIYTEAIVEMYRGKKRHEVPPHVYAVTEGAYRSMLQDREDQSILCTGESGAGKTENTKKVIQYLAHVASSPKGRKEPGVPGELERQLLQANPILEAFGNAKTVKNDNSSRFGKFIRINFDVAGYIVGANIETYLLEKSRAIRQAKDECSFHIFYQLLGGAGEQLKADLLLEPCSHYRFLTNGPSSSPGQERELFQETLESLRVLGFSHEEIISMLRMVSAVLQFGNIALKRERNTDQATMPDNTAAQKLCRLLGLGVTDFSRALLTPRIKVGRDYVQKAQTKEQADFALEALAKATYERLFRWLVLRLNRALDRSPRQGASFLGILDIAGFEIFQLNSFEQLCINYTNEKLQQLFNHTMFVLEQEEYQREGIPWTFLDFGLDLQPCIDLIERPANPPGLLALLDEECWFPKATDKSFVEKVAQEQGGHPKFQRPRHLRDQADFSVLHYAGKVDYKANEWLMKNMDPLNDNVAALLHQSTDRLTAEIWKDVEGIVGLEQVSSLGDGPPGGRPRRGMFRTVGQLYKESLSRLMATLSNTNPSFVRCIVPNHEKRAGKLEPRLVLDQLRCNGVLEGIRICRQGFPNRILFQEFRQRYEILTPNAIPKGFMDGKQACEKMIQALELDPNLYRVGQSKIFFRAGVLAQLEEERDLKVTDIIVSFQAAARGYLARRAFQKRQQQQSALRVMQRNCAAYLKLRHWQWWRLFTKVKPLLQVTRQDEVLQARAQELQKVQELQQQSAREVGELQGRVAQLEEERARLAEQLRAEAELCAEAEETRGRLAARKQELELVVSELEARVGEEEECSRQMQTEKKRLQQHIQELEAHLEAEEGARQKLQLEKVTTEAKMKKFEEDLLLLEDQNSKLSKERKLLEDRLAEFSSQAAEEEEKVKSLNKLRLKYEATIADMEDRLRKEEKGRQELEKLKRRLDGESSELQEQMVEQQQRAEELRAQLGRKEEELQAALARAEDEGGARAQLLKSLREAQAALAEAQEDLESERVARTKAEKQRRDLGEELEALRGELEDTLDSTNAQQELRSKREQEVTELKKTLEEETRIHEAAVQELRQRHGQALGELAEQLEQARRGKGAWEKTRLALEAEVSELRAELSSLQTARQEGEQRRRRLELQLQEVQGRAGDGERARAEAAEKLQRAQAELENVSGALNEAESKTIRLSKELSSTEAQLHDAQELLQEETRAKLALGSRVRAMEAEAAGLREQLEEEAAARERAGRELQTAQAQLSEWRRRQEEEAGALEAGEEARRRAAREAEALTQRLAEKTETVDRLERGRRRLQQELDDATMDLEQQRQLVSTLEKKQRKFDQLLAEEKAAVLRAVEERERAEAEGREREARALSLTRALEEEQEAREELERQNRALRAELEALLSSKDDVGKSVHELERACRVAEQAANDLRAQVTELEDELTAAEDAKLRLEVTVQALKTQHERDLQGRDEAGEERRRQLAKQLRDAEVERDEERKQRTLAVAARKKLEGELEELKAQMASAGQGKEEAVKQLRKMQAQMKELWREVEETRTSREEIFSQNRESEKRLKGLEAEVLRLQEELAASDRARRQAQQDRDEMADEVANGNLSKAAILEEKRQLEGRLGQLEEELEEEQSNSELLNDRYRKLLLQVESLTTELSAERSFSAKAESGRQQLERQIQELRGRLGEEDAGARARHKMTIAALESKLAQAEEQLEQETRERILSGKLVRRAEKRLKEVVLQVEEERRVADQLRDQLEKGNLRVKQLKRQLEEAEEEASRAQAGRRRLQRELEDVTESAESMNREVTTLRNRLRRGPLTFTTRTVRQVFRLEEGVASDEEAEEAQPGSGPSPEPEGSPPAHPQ

[9] = molecular target: Calcium/calmodulin-dependent protein kinase type II subunit delta (Homo sapiens, UniProt Q13557)
Calcium/calmodulin-dependent protein kinase type II subunit delta, sequence (Q13557 whole entry): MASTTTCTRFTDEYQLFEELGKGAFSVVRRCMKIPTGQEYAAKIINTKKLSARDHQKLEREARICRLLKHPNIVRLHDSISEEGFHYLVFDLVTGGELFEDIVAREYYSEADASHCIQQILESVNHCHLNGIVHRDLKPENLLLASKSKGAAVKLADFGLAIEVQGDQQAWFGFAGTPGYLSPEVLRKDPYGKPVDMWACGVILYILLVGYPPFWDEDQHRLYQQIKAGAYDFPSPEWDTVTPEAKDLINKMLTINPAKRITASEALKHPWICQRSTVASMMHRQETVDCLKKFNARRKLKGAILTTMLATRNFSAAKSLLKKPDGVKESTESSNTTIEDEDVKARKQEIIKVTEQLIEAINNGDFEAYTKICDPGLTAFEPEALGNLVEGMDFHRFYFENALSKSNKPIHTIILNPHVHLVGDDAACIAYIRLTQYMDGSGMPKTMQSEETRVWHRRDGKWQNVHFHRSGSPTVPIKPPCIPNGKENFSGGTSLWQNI
Note: in the data inactive means no Kd found up to 30 µM.

Calcium/calmodulin-dependent protein kinase kinase 2, sequence (Q96RR4 whole entry): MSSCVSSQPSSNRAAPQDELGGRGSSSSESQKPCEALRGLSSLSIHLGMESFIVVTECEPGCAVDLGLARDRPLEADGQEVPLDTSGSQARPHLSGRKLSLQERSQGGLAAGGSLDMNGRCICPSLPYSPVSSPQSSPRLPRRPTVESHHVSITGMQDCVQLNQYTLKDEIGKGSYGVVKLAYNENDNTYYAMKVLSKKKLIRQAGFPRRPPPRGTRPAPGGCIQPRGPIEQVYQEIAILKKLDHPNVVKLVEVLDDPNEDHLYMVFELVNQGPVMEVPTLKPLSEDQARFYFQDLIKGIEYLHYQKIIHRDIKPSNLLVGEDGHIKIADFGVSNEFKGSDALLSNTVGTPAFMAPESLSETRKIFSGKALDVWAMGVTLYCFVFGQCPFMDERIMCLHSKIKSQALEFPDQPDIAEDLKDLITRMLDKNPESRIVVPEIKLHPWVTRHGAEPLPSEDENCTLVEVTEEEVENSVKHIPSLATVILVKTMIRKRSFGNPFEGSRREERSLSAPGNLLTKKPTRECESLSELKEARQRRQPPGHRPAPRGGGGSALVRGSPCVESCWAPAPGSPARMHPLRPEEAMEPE

Row | SMILES | Kd [1] | Kd [2] | Kd [3] | Kd [4] | Kd [5] | Kd [6] | Kd [7] | Kd [8] | Kd [9]
1 | O=c1[nH]c([C@@H]2CCCN2)nc2c1oc1ccc(Cl)cc12 | > 30 µM (inactive) | > 30 µM (inactive) | > 30 µM (inactive) | > 30 µM (inactive) | > 30 µM (inactive) | > 30 µM (inactive) | > 30 µM (inactive) | > 30 µM (inactive) | > 30 µM (inactive)
2 | CCN1CCN(Cc2ccc(Nc3ncc(F)c(-c4cc(F)c5nc(C)n(C(C)C)c5c4)n3)nc2)CC1 [ABEMACICLIB] | 2.6 µM (active) | > 30 µM (inactive) | > 30 µM (inactive) | > 30 µM (inactive) | > 30 µM (inactive) | > 30 µM (inactive) | > 30 µM (inactive) | > 30 µM (inactive) | 0.019 µM (active)
3 | C[C@]1(O)C[C@@H](c2nc(-c3ccc4ccc(-c5ccccc5)nc4c3)c3c(N)nccn32)C1 [LINSITINIB] | > 30 µM (inactive) | > 30 µM (inactive) | > 30 µM (inactive) | > 30 µM (inactive) | > 30 µM (inactive) | > 30 µM (inactive) | > 30 µM (inactive) | > 30 µM (inactive) | 
4 | C=CC(=O)Nc1cc(Nc2nccc(-c3cn(C)c4ccccc34)n2)c(OC)cc1N(C)CCN(C)C [OSIMERTINIB] | > 30 µM (inactive) | > 30 µM (inactive) | > 30 µM (inactive) | > 30 µM (inactive) | > 30 µM (inactive) | > 30 µM (inactive) | > 30 µM (inactive) | > 30 µM (inactive) | > 30 µM (inactive)
5 | C=CCN(/C=C1/C(=O)O[C@H](COC)[C@@]2(C)C1=C(O)C(=O)C1=C2[C@H](OC(C)=O)C[C@]2(C)C(=O)CC[C@@H]12)CC=C [SONOLISIB] | > 30 µM (inactive) | > 30 µM (inactive) | > 30 µM (inactive) | > 30 µM (inactive) | > 30 µM (inactive) | > 30 µM (inactive) | > 30 µM (inactive) |  | > 30 µM (inactive)

Next, values leading:

Row | Kd [1] | Kd [2] | Kd [3] | Kd [4] | Kd [5] | Kd [6] | Kd [7] | Kd [8] | Kd [9] | SMILES
6 | 35.6 µM (active) | > 30 µM (inactive) | > 30 µM (inactive) | > 30 µM (inactive) | > 30 µM (inactive) | > 30 µM (inactive) | > 30 µM (inactive) | > 30 µM (inactive) | > 30 µM (inactive) | CCc1cc2c(cc1N1CCC(N3CCOCC3)CC1)C(C)(C)c1[nH]c3cc(C#N)ccc3c1C2=O [ALECTINIB]
7 | > 30 µM (inactive) | > 30 µM (inactive) | > 30 µM (inactive) | > 30 µM (inactive) | > 30 µM (inactive) | > 30 µM (inactive) | > 30 µM (inactive) | > 30 µM (inactive) | > 30 µM (inactive) | Cc1cc(Nc2nc(N[C@@H](C)c3ncc(F)cn3)ncc2Cl)n[nH]1 [AZD-1480]
8 | > 30 µM (inactive) | > 30 µM (inactive) | > 30 µM (inactive) | > 30 µM (inactive) | > 30 µM (inactive) | > 30 µM (inactive) | > 30 µM (inactive) | > 30 µM (inactive) | > 30 µM (inactive) | COc1ccc(-c2ccc3ncc4c(c3c2)n(-c2ccc(N3CCNCC3)c(C(F)(F)F)c2)c(=O)n4C)cn1 [BGT-226 FREE BASE]
9 |  |  |  | > 30 µM (inactive) |  |  |  |  |  | C[C@@]1(C(=O)Nc2ccc(F)nc2)CCCN1c1nc(Nc2cc(C3CC3)n[nH]2)c2cccn2n1 [BMS-754807]
10 | > 30 µM (inactive) | > 30 µM (inactive) | > 30 µM (inactive) | > 30 µM (inactive) | > 30 µM (inactive) | > 30 µM (inactive) | > 30 µM (inactive) | > 30 µM (inactive) | > 30 µM (inactive) | Cc1ccc(C(=O)Nc2ccc(Oc3cc4cnn(C)c4cc3-c3cn[nH]c3)c(F)c2)c(=O)n1-c1ccc(F)cc1 [MERESTINIB]
11 | > 30 µM (inactive) | > 30 µM (inactive) | > 30 µM (inactive) | > 30 µM (inactive) | > 30 µM (inactive) | > 30 µM (inactive) | > 30 µM (inactive) | > 30 µM (inactive) | > 30 µM (inactive) | O=C(NOC[C@H](O)CO)c1ccc(F)c(F)c1Nc1ccc(I)cc1F [MIRDAMETINIB]
